Drawing on patent publication US8299077B2 (Roche Palo Alto LLC, priority 2009, dated 2012), this text covers IC50 for 19 compounds.

This assay deals with B cell receptor-mediated activation of B cells in human blood (CD69 expression). Nature of the assay: Inhibition of B cell activation in whole blood measured by CD69 expression. The format is cell-based. The settings on record: anti-IgM stimulation, 20 h, 50% decrease of CD69-positive cells that are also CD20-positive. As to the method: Inhibition of B Cell Activation in Whole Blood Measured by CD69 Expression
A procedure to test the ability of Btk inhibitors to suppress B cell receptor-mediated activation of B cells in human blood is as follows:
Human whole blood (HWB) is obtained from healthy volunteers, with the following restrictions: 24 hr drug-free, non-smokers. Blood is collected by venipuncture into Vacutainer tubes anticoagulated with sodium heparin. Test compounds are diluted to ten times the desired starting drug concentration in PBS (20×), followed by three-fold serial dilutions in 10% DMSO in PBS to produce a nine point dose-response curve. 5.5 μl of each compound dilution is added in duplicate to a 2 ml 96-well V bottom plate (Analytical Sales and Services, #59623-23); 5.5 μl of 10% DMSO in PBS is added to control and no-stimulus wells. HWB (100 μl) is added to each well, and after mixing the plates are incubated at 37 C, 5% CO2, 100% humidity for 30 minutes. Goat F(ab′)2 anti-human IgM (Southern Biotech, #2022-14) (10 μl of a 500 μg/ml solution, 50 μg/ml final concentration) is added to each well (except the no-stimulus wells) with mixing and the plates are incubated for an additional 20 hours.
At the end of the 20 hour incubation, samples are incubated with florescent-probe-labeled anti-bodies (15 μl PE Mouse anti-Human CD20, BD Pharmingen, #555623, and/or 20 ul APC Mouse anti-Human CD69, BD Pharmingen #555533) for 30 minutes, at 37 C, 5% CO2, 100% humidity. Included are induced control, unstained and single stains for compensation adjustments and initial voltage settings. Samples are then lysed with 1 ml of 1× Pharmingen Lyse Buffer (BD Pharmingen #555899), and plates are centrifuged at 1800 rpm for 5 minutes. Supernatants are removed via suction and the remaining pellets are lysed again with another 1 ml of 1× Pharmingen Lyse Buffer, and plates are spun down as before. Supernatants are aspirated and remaining pellets are washed in FACs buffer (PBS+1% FBS). After a final spin, the supernantants are removed and pellets are resuspended in 180 μl of FACs buffer. Samples are transferred to a 96 well plate suitable to be run on the HTS 96 well system on the BD LSR II flow cytometer.
Using appropriate excitation and emission wavelengths for the fluorophores used, data are acquired and percent positive cell values are obtained using Cell Quest Software. Results are initially analyzed by FACS analysis software (Flow Jo). […] The IC50 values are calculated using XLfit software version 3, equation 201.
Compound `CCn1cc(Nc2nc(-c3cccc(-n4ccc5cc(C(C)(C)O)cc(F)c5c4=O)c3CO)cn(C)c2=O)cn1` [Example I-81, 2-{3-[6-(1-Ethyl-1H-pyrazol-4-ylamino)-4-methyl-5-oxo-4,5-dihydro-pyrazin-2-yl]-2-hydroxymethyl-phenyl}-8-fluoro-6-(1-hydroxy-1-methyl-ethyl)-2H-isoquinolin-1-one] returned an IC50 of 0.013 µM.

With `CC(C)n1ccc(Nc2cc(-c3cccc(-n4ncc5cc(C(C)(C)C)cc(F)c5c4=O)c3CO)cn(C)c2=O)nc1=O` [Example I-38, 6-tert-Butyl-8-fluoro-2-{2-hydroxymethyl-3-[5-(1-isopropyl-2-oxo-1,2-dihydro-pyrimidin-4-ylamino)-1-methyl-6-oxo-1,6-dihydro-pyridin-3-yl]-phenyl}-2H-phthalazin-1-one], it took 0.067 µM to reach half-maximal inhibition (IC50). For `CC(O)Cn1cc(Nc2nc(-c3cccc(-n4ccc5cc(C6CC6)cc(F)c5c4=O)c3CO)cn(C)c2=O)cn1` (stereo not shown) [Example I-82, 6-Cyclopropyl-8-fluoro-2-(2-hydroxymethyl-3-{6-[1-(2-hydroxy-propyl)-1H-pyrazol-4-ylamino]-4-methyl-5-oxo-4,5-dihydro-pyrazin-2-yl}-phenyl)-2H-isoquinolin-1-one], the IC50 came out at 0.057 µM.

`COCCNCc1ccc(Nc2cc(-c3cccc(-n4ncc5cc(C(C)(C)C)cc(F)c5c4=O)c3CO)cn(C)c2=O)nc1` [Example I-39, 6-tert-Butyl-8-fluoro-2-[2-hydroxymethyl-3-(5-{5-[(2-methoxy-ethylamino)-methyl]-pyridin-2-ylamino}-1-methyl-6-oxo-1,6-dihydro-pyridin-3-yl)-phenyl]-2H-phthalazin-1-one] showed a 50% inhibitory concentration (IC50) of 0.008 µM. For `CC(=O)NC(C)(C)c1ccc(Nc2cc(-c3cccc(-n4ncc5cc(C(C)(C)C)cc(F)c5c4=O)c3CO)cn(C)c2=O)nc1` [Example I-48, N-[1-(6-{5-[3-(6-tert-Butyl-8-fluoro-1-oxo-1H-phthalazin-2-yl)-2-hydroxymethyl-phenyl]-1-methyl-2-oxo-1,2-dihydro-pyridin-3-ylamino}-pyridin-3-yl)-1-methyl-ethyl]-acetamide] the value was 0.047 µM.

With `Cn1cc(-c2cccc(-n3ncc4cc(C(C)(C)C)cc(F)c4c3=O)c2CO)cc(Nc2ccc(N3CC[N+](C)([O-])CC3)cn2)c1=O` [Example I-45, 6-tert-Butyl-8-fluoro-2-(2-hydroxymethyl-3-{1-methyl-5-[5-(4-methyl-4-oxy-piperazin-1-yl)-pyridin-2-ylamino]-6-oxo-1,6-dihydro-pyridin-3-yl}-phenyl)-2H-phthalazin-1-one], the IC50 was 2.26 µM. Then `CN1CCN(Cc2ccc(Nc3cc(-c4cccc(N5CCc6cc(C7CC7)cc(F)c6C5=O)c4CO)cn(C)c3=O)nc2)CC1` [Example I-11, 6-Cyclopropyl-8-fluoro-2-(2-hydroxymethyl-3-{1-methyl-5-[5-(4-methyl-piperazin-1-ylmethyl)-pyridin-2-ylamino]-6-oxo-1,6-dihydro-pyridin-3-yl}-phenyl)-3,4-dihydro-2H-isoquinolin-1-one], with 0.058 µM; and `Cc1c(-c2cc(Nc3ccc(N4CCN(C)CC4)cn3)c(=O)n(C)c2)cccc1-n1ncc2cc(C(C)(C)C)cc(F)c2c1=O` [Example I-28, 6-tert-Butyl-8-fluoro-2-(2-methyl-3-{1-methyl-5-[5-(4-methyl-piperazin-1-yl)-pyridin-2-ylamino]-6-oxo-1,6-dihydro-pyridin-3-yl}-phenyl)-2H-phthalazin-1-one], with 0.181 µM. `Cn1cc(-c2cccc(-n3ccc4cc(C5(C)CC5)cc(F)c4c3=O)c2CO)cc(Nc2ccc(S(C)(=O)=O)cn2)c1=O` [Example I-61, 8-Fluoro-2-{2-hydroxymethyl-3-[5-(5-methanesulfonyl-pyridin-2-ylamino)-1-methyl-6-oxo-1,6-dihydro-pyridin-3-yl]-phenyl}-6-(1-methyl-cyclopropyl)-2H-isoquinolin-1-one] yielded an IC50 of 0.051 µM. For `CNC(=O)C(C)(C)c1ccc(Nc2cc(-c3cccc(-n4ccc5cc(C6CC6)cc(F)c5c4=O)c3CO)cn(C)c2=O)nc1` [Example I-69, 2-(6-{5-[3-(6-Cyclopropyl-8-fluoro-1-oxo-1H-isoquinolin-2-yl)-2-hydroxymethyl-phenyl]-1-methyl-2-oxo-1,2-dihydro-pyridin-3-ylamino}-pyridin-3-yl)-N-methyl-isobutyramide] the value was 0.033 µM; for `CN1CC(Oc2ccc(Nc3cc(-c4cccc(-n5ccc6cc(C7CC7)cc(F)c6c5=O)c4CO)cn(C)c3=O)nc2)C1` [Example I-71, 6-Cyclopropyl-8-fluoro-2-(2-hydroxymethyl-3-{1-methyl-5-[5-(1-methyl-azetidin-3-yloxy)-pyridin-2-ylamino]-6-oxo-1,6-dihydro-pyridin-3-yl}-phenyl)-2H-isoquinolin-1-one], 0.039 µM. The compound `Cn1cc(-c2cccc(-n3ncc4cc(C(C)(C)C)cc(F)c4c3=O)c2CO)cc(Nc2ccc(C(C)(C)C(=O)N3CCOCC3)cn2)c1=O` [Example I-21, 6-tert-Butyl-2-(3-{5-[5-(1,1-dimethyl-2-morpholin-4-yl-2-oxo-ethyl)-pyridin-2-ylamino]-1-methyl-6-oxo-1,6-dihydro-pyridin-3-yl}-2-hydroxymethyl-phenyl)-8-fluoro-2H-phthalazin-1-one] returned an IC50 of 0.011 µM. For `Cn1cc(-c2cccc(-n3ncc4cc(C(C)(C)C)cc(F)c4c3=O)c2CO)cc(Nc2ccc(C(C)(C)C(=O)O)cn2)c1=O` [Example I-20, 2-(6-{5-[3-(6-tert-Butyl-8-fluoro-1-oxo-1H-phthalazin-2-yl)-2-hydroxymethyl-phenyl]-1-methyl-2-oxo-1,2-dihydro-pyridin-3-ylamino}-pyridin-3-yl)-2-methyl-propionic acid], half-maximal inhibition (IC50) was put at 0.041 µM. Then `Cn1cc(-c2cccc(-n3ncc4cc(C(C)(C)C)cc(F)c4c3=O)c2CO)cc(Nc2ccc(CN3CCC(N)C3)cn2)c1=O` (stereo not shown) [Example I-86, 2-(3-{5-[5-(3-Amino-pyrrolidin-1-ylmethyl)-pyridin-2-ylamino]-1-methyl-6-oxo-1,6-dihydro-pyridin-3-yl}-2-hydroxymethyl-phenyl)-6-tert-butyl-8-fluoro-2H-phthalazin-1-one], with 0.101 µM.

The compound `CN1CCN(c2ccc(Nc3cc(-c4cccc(-n5ccc6cc(N(C)C)cc(F)c6c5=O)c4CO)cn(C)c3=O)nc2)CC1` [Example I-4, 6-Dimethylamino-8-fluoro-2-(2-hydroxymethyl-3-{1-methyl-5-[5-(4-methyl-piperazin-1-yl)-pyridin-2-ylamino]-6-oxo-1,6-dihydro-pyridin-3-yl}-phenyl)-2H-isoquinolin-1-one] showed an IC50 of 0.011 µM. Then `CN(C)C(=O)C(C)(C)c1ccc(Nc2cc(-c3cccc(-n4ncc5cc(C(C)(C)C)cc(F)c5c4=O)c3CO)cn(C)c2=O)nc1` [Example I-22, 2-(6-{5-[3-(6-tert-Butyl-8-fluoro-1-oxo-1H-phthalazin-2-yl)-2-hydroxymethyl-phenyl]-1-methyl-2-oxo-1,2-dihydro-pyridin-3-ylamino}-pyridin-3-yl)-N,N-dimethyl-isobutyramide], with 0.014 µM; and `CCOCCNC(=O)C(C)(C)c1ccc(Nc2cc(-c3cccc(-n4ncc5cc(C(C)(C)C)cc(F)c5c4=O)c3CO)cn(C)c2=O)nc1` [Example I-29, 2-(6-{5-[3-(6-tert-Butyl-8-fluoro-1-oxo-1H-phthalazin-2-yl)-2-hydroxymethyl-phenyl]-1-methyl-2-oxo-1,2-dihydro-pyridin-3-ylamino}-pyridin-3-yl)-N-(2-ethoxy-ethyl)-isobutyramide], with 0.03 µM; and `Cn1cc(-c2cccc(-n3ccc4cc(C5CC5)cc(F)c4c3=O)c2CO)cc(Nc2ccc(S(C)(=O)=O)cn2)c1=O` [Example I-62, 6-Cyclopropyl-8-fluoro-2-{2-hydroxymethyl-3-[5-(5-methanesulfonyl-pyridin-2-ylamino)-1-methyl-6-oxo-1,6-dihydro-pyridin-3-yl]-phenyl}-2H-isoquinolin-1-one], with 0.092 µM. For `Cn1cc(-c2cccc(-n3ncc4cc(C(C)(C)C)cc(F)c4c3=O)c2CO)cc(Nc2ccc(CO)cn2)c1=O` [Example I-26, 6-tert-Butyl-8-fluoro-2-{2-hydroxymethyl-3-[5-(5-hydroxymethyl-pyridin-2-ylamino)-1-methyl-6-oxo-1,6-dihydro-pyridin-3-yl]-phenyl}-2H-phthalazin-1-one] the value was 0.091 µM.

The IC50 is the concentration at which inhibition is half-maximal.
